{
  "source": "patent US8129417B2",
  "about": "“Substituted octahydrocyclopenta[C]pyrrol-4-amines as calcium channel blockers” (Abbott Laboratories, priority 2008, dated 2012)",
  "data": [
    {"biological_target": "human Cav2.2 (Homo sapiens, UniProt Q00975)", "sequence (Q00975 whole entry)": "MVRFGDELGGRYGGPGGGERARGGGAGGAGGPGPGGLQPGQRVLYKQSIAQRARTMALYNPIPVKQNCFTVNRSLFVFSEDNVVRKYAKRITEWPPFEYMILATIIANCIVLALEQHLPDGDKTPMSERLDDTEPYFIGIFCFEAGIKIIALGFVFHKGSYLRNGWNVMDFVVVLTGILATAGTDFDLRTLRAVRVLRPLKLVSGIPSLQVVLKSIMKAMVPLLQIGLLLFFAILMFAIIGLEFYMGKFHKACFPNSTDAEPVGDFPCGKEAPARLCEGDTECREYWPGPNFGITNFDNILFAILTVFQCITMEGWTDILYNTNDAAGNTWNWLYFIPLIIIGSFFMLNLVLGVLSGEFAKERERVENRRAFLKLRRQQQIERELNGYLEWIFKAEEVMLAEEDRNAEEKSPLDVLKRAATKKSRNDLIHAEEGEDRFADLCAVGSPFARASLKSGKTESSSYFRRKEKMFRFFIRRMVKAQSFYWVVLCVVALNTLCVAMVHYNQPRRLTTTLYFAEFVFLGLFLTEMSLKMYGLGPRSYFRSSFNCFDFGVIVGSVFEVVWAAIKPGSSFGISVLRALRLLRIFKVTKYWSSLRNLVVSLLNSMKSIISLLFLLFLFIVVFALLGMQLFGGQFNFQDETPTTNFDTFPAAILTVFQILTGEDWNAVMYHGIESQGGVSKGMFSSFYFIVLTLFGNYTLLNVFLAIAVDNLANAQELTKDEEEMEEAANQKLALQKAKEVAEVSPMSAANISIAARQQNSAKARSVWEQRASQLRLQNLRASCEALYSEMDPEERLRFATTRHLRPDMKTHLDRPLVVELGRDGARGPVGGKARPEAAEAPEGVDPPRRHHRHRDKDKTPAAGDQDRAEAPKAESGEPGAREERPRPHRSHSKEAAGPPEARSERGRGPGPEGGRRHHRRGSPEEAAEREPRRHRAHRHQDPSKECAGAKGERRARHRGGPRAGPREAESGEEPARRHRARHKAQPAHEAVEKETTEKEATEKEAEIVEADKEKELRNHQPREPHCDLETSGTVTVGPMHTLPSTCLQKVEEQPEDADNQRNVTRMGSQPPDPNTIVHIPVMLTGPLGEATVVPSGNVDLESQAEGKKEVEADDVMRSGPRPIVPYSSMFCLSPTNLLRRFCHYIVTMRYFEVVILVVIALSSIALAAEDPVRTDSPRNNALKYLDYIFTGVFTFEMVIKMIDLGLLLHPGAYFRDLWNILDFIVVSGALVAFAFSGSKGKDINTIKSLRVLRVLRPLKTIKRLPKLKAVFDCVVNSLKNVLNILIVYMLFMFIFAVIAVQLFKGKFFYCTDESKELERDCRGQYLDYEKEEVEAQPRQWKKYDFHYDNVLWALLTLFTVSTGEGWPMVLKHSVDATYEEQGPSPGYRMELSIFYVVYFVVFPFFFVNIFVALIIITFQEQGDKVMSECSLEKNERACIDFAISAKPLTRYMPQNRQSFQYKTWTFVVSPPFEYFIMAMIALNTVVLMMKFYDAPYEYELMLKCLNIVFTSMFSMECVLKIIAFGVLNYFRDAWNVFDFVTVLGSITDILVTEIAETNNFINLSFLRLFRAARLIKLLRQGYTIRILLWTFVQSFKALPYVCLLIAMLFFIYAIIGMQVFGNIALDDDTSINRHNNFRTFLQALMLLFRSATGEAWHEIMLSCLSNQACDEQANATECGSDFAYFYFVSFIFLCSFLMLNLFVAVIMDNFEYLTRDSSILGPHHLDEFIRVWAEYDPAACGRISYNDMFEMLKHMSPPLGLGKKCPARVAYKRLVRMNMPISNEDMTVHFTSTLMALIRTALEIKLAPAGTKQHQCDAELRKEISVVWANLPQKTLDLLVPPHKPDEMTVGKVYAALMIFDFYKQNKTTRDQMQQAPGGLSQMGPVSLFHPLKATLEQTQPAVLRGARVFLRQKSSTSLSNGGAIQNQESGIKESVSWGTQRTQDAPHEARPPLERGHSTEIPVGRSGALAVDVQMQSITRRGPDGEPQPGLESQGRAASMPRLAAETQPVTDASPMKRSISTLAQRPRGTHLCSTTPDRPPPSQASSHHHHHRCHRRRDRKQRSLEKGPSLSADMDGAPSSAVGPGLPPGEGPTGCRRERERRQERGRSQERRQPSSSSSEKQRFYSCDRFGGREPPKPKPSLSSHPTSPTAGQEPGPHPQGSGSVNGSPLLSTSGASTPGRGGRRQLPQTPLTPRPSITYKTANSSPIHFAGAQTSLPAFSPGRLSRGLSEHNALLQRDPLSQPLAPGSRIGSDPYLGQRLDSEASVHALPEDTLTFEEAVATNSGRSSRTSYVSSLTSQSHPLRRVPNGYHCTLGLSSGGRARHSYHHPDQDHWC", "sequence (P54289 25-946 partner limits assumed)": "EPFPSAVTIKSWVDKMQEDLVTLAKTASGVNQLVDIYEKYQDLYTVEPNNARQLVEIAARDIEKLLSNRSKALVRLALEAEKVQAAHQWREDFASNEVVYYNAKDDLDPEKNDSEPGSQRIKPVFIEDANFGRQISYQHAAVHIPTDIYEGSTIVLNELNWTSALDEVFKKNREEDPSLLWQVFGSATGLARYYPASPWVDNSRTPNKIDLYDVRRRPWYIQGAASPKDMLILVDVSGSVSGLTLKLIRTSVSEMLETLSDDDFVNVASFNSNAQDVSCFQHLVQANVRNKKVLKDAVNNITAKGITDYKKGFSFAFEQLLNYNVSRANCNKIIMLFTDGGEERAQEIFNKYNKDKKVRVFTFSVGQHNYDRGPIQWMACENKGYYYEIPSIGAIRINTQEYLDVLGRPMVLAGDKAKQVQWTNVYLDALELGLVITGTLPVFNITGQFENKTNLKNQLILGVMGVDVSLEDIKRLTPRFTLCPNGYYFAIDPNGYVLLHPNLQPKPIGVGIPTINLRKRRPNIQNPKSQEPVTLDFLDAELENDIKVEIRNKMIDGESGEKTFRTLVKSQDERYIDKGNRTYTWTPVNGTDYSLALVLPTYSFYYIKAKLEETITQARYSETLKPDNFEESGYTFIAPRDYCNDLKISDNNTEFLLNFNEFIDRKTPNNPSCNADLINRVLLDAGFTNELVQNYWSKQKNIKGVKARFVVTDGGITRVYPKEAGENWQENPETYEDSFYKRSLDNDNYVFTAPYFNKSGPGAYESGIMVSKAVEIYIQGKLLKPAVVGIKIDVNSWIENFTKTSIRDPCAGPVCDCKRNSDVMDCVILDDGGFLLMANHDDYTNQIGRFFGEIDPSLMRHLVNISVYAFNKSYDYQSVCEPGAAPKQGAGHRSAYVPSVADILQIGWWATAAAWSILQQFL", "sequence (P54289 947-1103 partner limits assumed)": "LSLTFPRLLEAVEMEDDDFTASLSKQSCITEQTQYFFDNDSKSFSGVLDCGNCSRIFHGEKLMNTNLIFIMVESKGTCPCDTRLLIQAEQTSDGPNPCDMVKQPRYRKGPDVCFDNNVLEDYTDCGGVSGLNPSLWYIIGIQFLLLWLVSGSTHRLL", "sequence (P54284 whole entry partner)": "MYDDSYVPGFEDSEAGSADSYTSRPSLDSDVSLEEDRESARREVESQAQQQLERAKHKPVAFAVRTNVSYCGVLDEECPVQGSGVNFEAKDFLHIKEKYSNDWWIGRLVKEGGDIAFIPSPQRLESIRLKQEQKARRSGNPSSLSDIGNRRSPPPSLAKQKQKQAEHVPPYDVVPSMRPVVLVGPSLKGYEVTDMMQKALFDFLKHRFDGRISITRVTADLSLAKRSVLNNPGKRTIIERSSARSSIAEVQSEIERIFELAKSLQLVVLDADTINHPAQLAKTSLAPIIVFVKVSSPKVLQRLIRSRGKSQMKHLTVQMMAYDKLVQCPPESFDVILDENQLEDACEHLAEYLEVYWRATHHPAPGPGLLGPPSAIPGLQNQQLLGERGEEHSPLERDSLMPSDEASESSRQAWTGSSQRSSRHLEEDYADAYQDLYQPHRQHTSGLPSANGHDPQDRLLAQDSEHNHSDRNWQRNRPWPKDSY", "experiment": "Assessment of calcium channel activity using FLIPR (Ca2+ influx in IMR32 cells)", "type": "cell-based", "details": "3 minute pre-incubation with compound (*), 2 μM nifedipine, depolarized with 80 mM KCl", "procedure": "(§1) (i) In Vitro Methods—Assessment of Calcium Channel Activity Using FLIPR:\n(§2) The IMR32 cells were maintained in MEM media containing 10% (v/v) FBS, 1% (v/v) antibiotic/antimitotic, 1% (v/v) sodium pyruvate and 1% (v/v) MEM NEAA. Following dissociation in 0.05% (v/v) trypsin/EDTA, cells were seeded into black 1×96-well plates (Corning Cellbind) at a density of 1-1.2×10^5 cells/well and incubated in the maintenance media above for 48 hours at 37° C. […] To determine the IC50 values, the percent inhibition of the compound at each concentration was determined relative to the activity in the absence of inhibitor, and data was fitted using non-linear regression sigmoidal dose response curve analysis with GraphPad Prism®.", "units": {"IC50": "nM"}, "values": [
      {"smiles": "O=C(N[C@H]1CC[C@H]2CN(Cc3ccccc3)C[C@H]21)C1(c2ccccc2)CCCC1", "note": "(relative stereo) [Example 1, N-[(3aS*,4S*,6aR*)-2-benzyloctahydrocyclopenta[c]pyrrol-4-yl]-1-phenylcyclopentanecarboxamide]", "IC50": 3500},
      {"smiles": "O=C(N[C@@H]1CC[C@H]2CN(Cc3ccccc3)C[C@H]21)C1(c2ccccc2)CCCC1", "note": "(relative stereo) [Example 2, N-[(3aS*,4R*,6aR*)-2-benzyloctahydrocyclopenta[c]pyrrol-4-yl]-1-phenylcyclopentanecarboxamide]", "IC50": 4200},
      {"smiles": "CC(C)C(C(=O)N[C@@H]1CC[C@@H]2CN(Cc3ccccc3)C[C@@H]21)c1ccccc1", "note": "(relative stereo) [Example 5, N-[(3aR*,4R*,6aS*)-2-benzyloctahydrocyclopenta[c]pyrrol-4-yl]-3-methyl-2-phenylbutanamide]", "IC50": 3800},
      {"smiles": "CC(C)C(C(=O)N[C@H]1CC[C@@H]2CN(Cc3ccccc3)C[C@@H]21)c1ccccc1", "note": "(relative stereo) [Example 6, N-[(3aR*,4S*,6aS*)-2-benzyloctahydrocyclopenta[c]pyrrol-4-yl]-3-methyl-2-phenylbutanamide]", "IC50": 2200},
      {"smiles": "O=C(N[C@H]1CC[C@H]2CN(Cc3ccccc3)C[C@H]21)C(c1ccccc1)C1CCCC1", "note": "(relative stereo) [Example 7, N-[(3aS*,4S*,6aR*)-2-benzyloctahydrocyclopenta[c]pyrrol-4-yl]-2-cyclopentyl-2-phenylacetamide]", "IC50": 1800},
      {"smiles": "O=C(N[C@H]1CC[C@H]2CN(Cc3ccccc3)C[C@H]21)C1(c2ccccc2)CCCCC1", "note": "(relative stereo) [Example 9, N-[(3aS*,4S*,6aR*)-2-benzyloctahydrocyclopenta[c]pyrrol-4-yl]-1-phenylcyclohexanecarboxamide]", "IC50": 1800},
      {"smiles": "O=C(N[C@@H]1CC[C@H]2CN(Cc3ccccc3)C[C@H]21)C1(c2ccccc2)CCCCC1", "note": "(relative stereo) [Example 10, N-[(3aS*,4R*,6aR*)-2-benzyloctahydrocyclopenta[c]pyrrol-4-yl]-1-phenylcyclohexanecarboxamide]", "IC50": 1300}
    ]},
    {"biological_target": "human Cav2.2 (Homo sapiens, UniProt Q00975)", "experiment": "Assessment of calcium channel activity using FLIPR (Ca2+ influx in IMR32 cells)", "type": "cell-based", "details": "60 minute pre-incubation with compound, 2 μM nifedipine, depolarized with 80 mM KCl", "procedure": "as §1, §2", "units": {"IC50": "nM"}, "values": [
      {"smiles": "O=C(N[C@H]1CC[C@H]2CN(Cc3ccccc3)C[C@H]21)C(C1CCCCC1)C1CCCCC1", "note": "(relative stereo) [Example 11, N-[(3aS*,4S*,6aR*)-2-benzyloctahydrocyclopenta[c]pyrrol-4-yl]-2,2-dicyclohexylacetamide]", "IC50": 4000},
      {"smiles": "CC(C)C(C(=O)N[C@H]1CC[C@H]2CN(Cc3cccc(C(F)(F)F)c3)C[C@H]21)c1ccccc1", "note": "(relative stereo) [Example 122, 3-methyl-2-phenyl-N-{(3aS*,4S*,6aR*)-2-[3-(trifluoromethyl)benzyl]octahydrocyclopenta[c]pyrrol-4-yl}butanamide]", "IC50": 600},
      {"smiles": "O=C(N[C@H]1CC[C@H]2CN(Cc3cccc(C(F)(F)F)c3)C[C@H]21)C(C1CCCCC1)C1CCCCC1", "note": "(relative stereo) [Example 124, 2,2-dicyclohexyl-N-{(3aS*,4S*,6aR*)-2-[3-(trifluoromethyl)benzyl]octahydrocyclopenta[c]pyrrol-4-yl}acetamide]", "IC50": 700},
      {"smiles": "CCC(CC)C(=O)N[C@H]1CC[C@H]2CN(Cc3cccc(C(F)(F)F)c3)C[C@H]21", "note": "(relative stereo) [Example 125, 2-ethyl-N-{(3aS*,4S*,6aR*)-2-[3-(trifluoromethyl)benzyl]octahydrocyclopenta[c]pyrrol-4-yl}butanamide]", "IC50": 2800},
      {"smiles": "CCCC(CCC)C(=O)N[C@H]1CC[C@H]2CN(Cc3cccc(C(F)(F)F)c3)C[C@H]21", "note": "(relative stereo) [Example 126, 2-propyl-N-{(3aS*,4S*,6aR*)-2-[3-(trifluoromethyl)benzyl]octahydrocyclopenta[c]pyrrol-4-yl}pentanamide]", "IC50": 1000},
      {"smiles": "O=C(N[C@H]1CC[C@H]2CN(Cc3cccc(C(F)(F)F)c3)C[C@H]21)C1CCCCC1", "note": "(relative stereo) [Example 127, N-{(3aS*,4S*,6aR*)-2-[3-(trifluoromethyl)benzyl]octahydrocyclopenta[c]pyrrol-4-yl}cyclohexanecarboxamide]", "IC50": 1500},
      {"smiles": "O=C(N[C@H]1CC[C@H]2CN(Cc3cccc(C(F)(F)F)c3)C[C@H]21)C1CCCCCC1", "note": "(relative stereo) [Example 128, N-{(3aS*,4S*,6aR*)-2-[3-(trifluoromethyl)benzyl]octahydrocyclopenta[c]pyrrol-4-yl}cycloheptanecarboxamide]", "IC50": 1000},
      {"smiles": "O=C(N[C@H]1CC[C@H]2CN(Cc3cccc(C(F)(F)F)c3)C[C@H]21)C1CCCC1", "note": "(relative stereo) [Example 129, N-{(3aS*,4S*,6aR*)-2-[3-(trifluoromethyl)benzyl]octahydrocyclopenta[c]pyrrol-4-yl}cyclopentanecarboxamide]", "IC50": 2900},
      {"smiles": "O=C(CC(c1ccccc1)c1ccccc1)N[C@H]1CC[C@H]2CN(Cc3cccc(C(F)(F)F)c3)C[C@H]21", "note": "(relative stereo) [Example 131, 3,3-diphenyl-N-{(3aS*,4S*,6aR*)-2-[3-(trifluoromethyl)benzyl]octahydrocyclopenta[c]pyrrol-4-yl}propanamide]", "IC50": 700},
      {"smiles": "O=C(N[C@H]1CC[C@H]2CN(Cc3cccc(C(F)(F)F)c3)C[C@H]21)C(c1ccccc1)c1ccccc1", "note": "(relative stereo) [Example 135, 2,2-diphenyl-N-{(3aS*,4S*,6aR*)-2-[3-(trifluoromethyl)benzyl]octahydrocyclopenta[c]pyrrol-4-yl}acetamide]", "IC50": 900},
      {"smiles": "O=C(N[C@H]1CC[C@H]2CN(Cc3cccc(C(F)(F)F)c3)C[C@H]21)C(c1ccc(F)cc1)c1ccc(F)cc1", "note": "(relative stereo) [Example 136, 2,2-bis(4-fluorophenyl)-N-{(3aS*,4S*,6aR*)-2-[3-(trifluoromethyl)benzyl]octahydrocyclopenta[c]pyrrol-4-yl}acetamide]", "IC50": 1100},
      {"smiles": "CC(C)C[C@H](NC(=O)OC(C)(C)C)C(=O)N[C@@H]1CC[C@@H]2CN(Cc3cccc(C(F)(F)F)c3)C[C@@H]21", "note": "(relative stereo) [Example 137, N^2-(tert-butyloxycarbonyl)-N^1-{(3aR*,4R*,6aS*)-2-[3-(trifluoromethyl)benzyl]octahydrocyclopenta[c]pyrrol-4-yl}-L-leucinamide]", "IC50": 600},
      {"smiles": "O=C(CC(c1ccccc1)c1ccccc1)N[C@@H]1CC[C@H]2CN(Cc3cccc(C(F)(F)F)c3)C[C@H]21", "note": "(relative stereo) [Example 141, 3,3-diphenyl-N-{(3aS*,4R*,6aR*)-2-[3-(trifluoromethyl)benzyl]octahydrocyclopenta[c]pyrrol-4-yl}propanamide]", "IC50": 600},
      {"smiles": "c1ccc(CN2C[C@@H]3CC[C@@H](NC4CC4)[C@@H]3C2)cc1", "note": "(relative stereo) [Example 197, (3aS*,4R*,6aR*)-2-benzyl-N-cyclopropyloctahydrocyclopenta[c]pyrrol-4-amine]", "IC50": 69700},
      {"smiles": "c1ccc(CN2C[C@@H]3CC[C@H](NC4CC4)[C@@H]3C2)cc1", "note": "(relative stereo) [Example 198, (3aS*,4S*,6aR*)-2-benzyl-N-cyclopropyloctahydrocyclopenta[c]pyrrol-4-amine]", "IC50": 40400}
    ]},
    {"biological_target": "human Cav2.2 (Homo sapiens, UniProt Q00975)", "experiment": "Assessment of calcium channel activity using FLIPR (Ca2+ influx in IMR32 cells)", "type": "cell-based", "details": "IMR-32, @ 10 μM, 60 minute pre-incubation, read-out: percent inhibition", "procedure": "as §1, §2", "units": {"inhibition at 10 µM": "%"}, "values": [
      {"smiles": "O=C(N[C@@H]1CC[C@@H]2CN(Cc3ccccc3)C[C@@H]21)C(c1ccccc1)C1CCCCC1", "note": "(relative stereo) [Example 3, N-[(3aR*,4R*,6aS*)-2-benzyloctahydrocyclopenta[c]pyrrol-4-yl]-2-cyclohexyl-2-phenylacetamide]", "inhibition at 10 µM": 91}
    ]}
  ]
}
